Our source for the T/C values is PubChem BioAssay AID256 (DTP/NCI, 2004).

Molecules are shown by their SMILES. Several values for one entry are separate records, joined by “and”; a condition that tells them apart may be missing. Equal entries are not always repeated. Toxic doses and inconclusive results are not listed.

This assay concerns CD2F1 mice, L1210 leukemia ip, survival T/C. In words: NCI In Vivo Anticancer Drug Screen. Data for tumor model L1210 Leukemia (intraperitoneal) in CD2F1 (CDF1) mice. To be noted: higher = longer survival. In short, it runs like this: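 Transplantable tumor in mice; compound-treated vs vehicle-treated groups. Read-out = treated/control ratio of the measured endpoint.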
The mark [1] stands for this setting: endpoint: mean survival time, dose: 200.0 mg/kg/injection, schedule: Q01DX001 (ip), vehicle: saline with Tween-80.
[2] abbreviates: endpoint: mean survival time, dose: 400.0 mg/kg/injection, schedule: Q01DX001 (ip), vehicle: saline with Tween-80.
The mark [3] stands for this setting: endpoint: mean survival time, dose: 25.0 mg/kg/injection, schedule: Q01DX009 (ip), vehicle: saline with Tween-80.
[4] abbreviates: endpoint: mean survival time, dose: 50.0 mg/kg/injection, schedule: Q01DX009 (ip), vehicle: saline with Tween-80.
The mark [5] stands for this setting: endpoint: mean survival time, dose: 100.0 mg/kg/injection, schedule: Q01DX009 (ip), vehicle: saline with Tween-80.
The mark [6] stands for this setting: endpoint: mean survival time, dose: 100.0 mg/kg/injection, schedule: Q04DX003 (ip), vehicle: saline with Tween-80.
Where [7] appears, read: endpoint: mean survival time, dose: 200.0 mg/kg/injection, schedule: Q04DX003 (ip), vehicle: saline with Tween-80.
The mark [8] stands for this setting: endpoint: mean survival time, dose: 400.0 mg/kg/injection, schedule: Q04DX003 (ip), vehicle: saline with Tween-80.
The mark [9] stands for this setting: endpoint: mean survival time, dose: 200.0 mg/kg/injection, schedule: Q01DX009 (ip), vehicle: saline with Tween-80.
[10] abbreviates: endpoint: mean survival time, dose: 400.0 mg/kg/injection, schedule: Q01DX009 (ip), vehicle: saline with Tween-80.
Where [11] appears, read: endpoint: mean survival time, dose: 100.0 mg/kg/injection, schedule: Q04DX002 (ip), vehicle: saline with Tween-80.
Setting [12] is: endpoint: mean survival time, dose: 200.0 mg/kg/injection, schedule: Q04DX002 (ip), vehicle: saline with Tween-80.
Setting [13] is: endpoint: mean survival time, dose: 400.0 mg/kg/injection, schedule: Q04DX002 (ip), vehicle: saline with Tween-80.
The mark [14] stands for this setting: endpoint: mean survival time, dose: 100.0 mg/kg/injection, schedule: Q01DX009 (ip), vehicle: saline.
Setting [15] is: endpoint: mean survival time, dose: 200.0 mg/kg/injection, schedule: Q01DX009 (ip), vehicle: saline.

As for `CCC(CC(N)=O)C(C#N)(C#N)C(N)=O` (stereo not given), the T/C (endpoint: mean survival time, dose: 100.0 mg/kg/injection, schedule: Q01DX001 (ip), vehicle: saline with Tween-80) is 100 % of control; the T/C under setting [1] is 98 % of control; the T/C under setting [2] is 98 % of control.

With `c1ccc2c(c1)C1c3cccc[n+]3C2C2C1CC1C3c4ccccc4C(C12)[n+]1ccccc13` (stereo not given), where the note is “endpoint: mean survival time, dose: 12.5 mg/kg/injection, schedule: Q04DX003 (ip), vehicle: saline”, the T/C is 98 % of control.

For the molecule `CN(C)c1ccc(N=Nc2cccc(Cl)c2Cl)cc1`, the T/C by setting is: under setting [3], 102 % of control; under setting [4], 97 % of control; under setting [5], 105 % of control; under setting [6], 95 % of control; under setting [7], 98 % of control; under setting [8], 104 % of control.

Consider `Clc1ccc(COC(Cn2ccnc2)c2ccc(Cl)cc2Cl)c(Cl)c1` (stereo not given), for which the T/C is 91 % of control under setting [6] and 93 % of control under setting [7].

`CCOC(=O)C(=O)CC(=O)c1ccc(OC)cc1`: the T/C was 98 % of control under setting [5]; 100 % of control under setting [6]; 96 % of control under setting [9]; 95 % of control under setting [7]; 101 % of control under setting [10]; 95 % of control under setting [8].

As to `Nc1cccc(C(=O)O)c1`, the T/C is 95 % of control under setting [6], 94 % of control under setting [7] and 94 % of control under setting [8].

As for `CC(=O)/C(N=O)=C(/C)O`, the T/C was 88 % of control under setting [1] and 92 % of control under setting [2].

With `COc1ccc(C(C#N)C(CC(=O)c2ccccc2)c2ccccc2)cc1` (stereo not given), the T/C is 98 % of control under setting [11], 91 % of control under setting [12] and 87 % of control under setting [13].

For the molecule `CCN(CC)Cc1cc(O)ccc1NCCCNc1ccnc2cc(Cl)ccc12`, the T/C under setting [6] is 96 % of control.

With `O=c1[nH]cc(S)c(=O)[nH]1`, the T/C is 106 % of control under setting [11], 97 % of control under setting [12] and 106 % of control under setting [13].

Take `CCCCCCCCCCCCCCCCOc1ccc(S(=O)(=O)NC2CCCCC2)cc1N`: the T/C under setting [6] was 104 % of control, the T/C under setting [7] was 94 % of control and the T/C under setting [8] was 96 % of control.

For the molecule `Oc1c(CN2CCOCC2)cc(CN2CCOCC2)cc1CN1CCOCC1`, the T/C was 100 % of control under setting [5], 95 % of control under setting [9] and 100 % of control under setting [10].

With `CN(C)CC(CN(C)C)C(=O)O`, the T/C (endpoint: mean survival time, dose: 50.0 mg/kg/injection, schedule: Q01DX001 (ip), vehicle: saline) is 103 % of control; the T/C (endpoint: mean survival time, dose: 100.0 mg/kg/injection, schedule: Q01DX001 (ip), vehicle: saline) was 104 % of control; the T/C (endpoint: mean survival time, dose: 200.0 mg/kg/injection, schedule: Q01DX001 (ip), vehicle: saline) is 108 % of control.

Turning to `CN1CCc2cc3c(cc2C(=O)Cc2ccc4c(c2C1)OCO4)OCO3`, the T/C by setting is: under setting [3], 98 % of control; under setting [4], 101 % of control; under setting [5], 103 % of control.

Turning to `Cc1cc(Cl)ccc1NS(=O)(=O)c1cccc([N+](=O)[O-])c1`, the T/C reads like this: under setting [6], 97 % of control; under setting [7], 93 % of control; under setting [8], 90 % of control.

Turning to `CCOc1c(Cl)cc(Cl)cc1C(c1ccc(Cl)cc1S(=O)(=O)O)c1cc(Cl)cc(Cl)c1OCC`, the T/C is, setting by setting: under setting [3], 98 % of control; under setting [4], 89 % of control; under setting [5], 86 % of control.

Consider `CC[C@@]1(OC(=O)CN2CCNCC2)C(=O)OCc2c1cc1n(c2=O)Cc2cc3ccccc3nc2-1`, for which the T/C is 106 % of control (endpoint: median survival time, dose: 6.25 mg/kg/injection, schedule: Q04DX002 (ip), vehicle: water); 116 % of control (endpoint: median survival time, dose: 12.5 mg/kg/injection, schedule: Q04DX002 (ip), vehicle: water); 153 % of control and 170 % of control (endpoint: median survival time, dose: 50.0 mg/kg/injection, schedule: Q04DX002 (ip), vehicle: water); 268 % of control (endpoint: median survival time, dose: 100.0 mg/kg/injection, schedule: Q04DX002 (ip), vehicle: water).

In the case of `Nc1c(O)cc(S(=O)(=O)O)c2ccccc12`, the T/C by setting is: (endpoint: mean survival time, dose: 25.0 mg/kg/injection, schedule: Q04DX003 (ip), vehicle: saline) 95 % of control; (endpoint: mean survival time, dose: 50.0 mg/kg/injection, schedule: Q04DX003 (ip), vehicle: saline) 103 % of control; (endpoint: mean survival time, dose: 100.0 mg/kg/injection, schedule: Q04DX003 (ip), vehicle: saline) 109 % of control.

In the case of `COc1cccc(C(=O)O)c1OC`, the T/C under setting [5] is 109 % of control, the T/C under setting [9] was 94 % of control and the T/C under setting [10] is 102 % of control.

As for `CN1C(=O)CN=C(c2ccccn2)c2cc(Cl)ccc21`, the T/C was 97 % of control (endpoint: mean survival time, dose: 100.0 mg/kg/injection, schedule: Q01DX009 (ip), vehicle: saline sonified); 90 % of control (endpoint: mean survival time, dose: 200.0 mg/kg/injection, schedule: Q01DX009 (ip), vehicle: saline sonified); 102 % of control (endpoint: mean survival time, dose: 400.0 mg/kg/injection, schedule: Q01DX009 (ip), vehicle: saline sonified).

With `COc1ccc(C(=Nc2ccc(C)cc2)c2ccc([N+](=O)[O-])cc2)cc1`, the T/C is 94 % of control under setting [5]; 98 % of control under setting [6]; 98 % of control under setting [9]; 98 % of control under setting [7]; 96 % of control under setting [10]; 98 % of control under setting [8].

In the case of `CC(C)(C)OC(=O)N/N=C1\CC2CCC1C2` (stereo not given), the T/C under setting [3] was 107 % of control.

In the case of `CN(C)c1ccc2c(SCC(=O)OCC(=O)[C@@]3(O)CC[C@H]4[C@@H]5CCC6=CC(=O)C=C[C@]6(C)[C@H]5C(=O)C[C@@]43C)c3ccc(N(C)C)cc3nc2c1`, the T/C reads like this: (endpoint: median survival time, dose: 25.0 mg/kg/injection, schedule: Q01DX009 (ip), vehicle: Klucel (hydroxypropylcellulose) (HPC)) 117 % of control and 105 % of control; (endpoint: median survival time, dose: 50.0 mg/kg/injection, schedule: Q01DX009 (ip), vehicle: Klucel (hydroxypropylcellulose) (HPC)) 114 % of control and 116 % of control and 108 % of control; (endpoint: median survival time, dose: 100.0 mg/kg/injection, schedule: Q01DX009 (ip), vehicle: Klucel (hydroxypropylcellulose) (HPC)) 116 % of control and 118 % of control and 123 % of control; (endpoint: median survival time, dose: 200.0 mg/kg/injection, schedule: Q01DX009 (ip), vehicle: Klucel (hydroxypropylcellulose) (HPC)) 108 % of control; (endpoint: median survival time, dose: 400.0 mg/kg/injection, schedule: Q01DX009 (ip), vehicle: Klucel (hydroxypropylcellulose) (HPC)) 123 % of control.

Regarding `COc1ccc(C(O)(c2ccccc2)C(O)c2ccccc2)cc1` (stereo not given), the T/C by setting is: (endpoint: mean survival time, dose: 12.5 mg/kg/injection, schedule: Q04DX002 (ip), vehicle: saline with Tween-80) 93 % of control; (endpoint: mean survival time, dose: 25.0 mg/kg/injection, schedule: Q04DX002 (ip), vehicle: saline with Tween-80) 86 % of control; (endpoint: mean survival time, dose: 50.0 mg/kg/injection, schedule: Q04DX002 (ip), vehicle: saline with Tween-80) 86 % of control; under setting [6], 93 % of control; under setting [7], 87 % of control; under setting [8], 94 % of control and 89 % of control.

Consider `CCCN(CCC)C(=S)[S-].CCCN(CCC)C(=S)[S-].[Zn]`, for which the T/C runs as follows: (endpoint: mean survival time, dose: 75.0 mg/kg/injection, schedule: Q04DX003 (ip), vehicle: saline) 95 % of control; (endpoint: mean survival time, dose: 150.0 mg/kg/injection, schedule: Q04DX003 (ip), vehicle: saline) 86 % of control; (endpoint: mean survival time, dose: 300.0 mg/kg/injection, schedule: Q04DX003 (ip), vehicle: saline) 101 % of control.

Regarding `CCCC1OC(C)CC(C)(C)O1` (stereo not given), the T/C reads like this: (endpoint: mean survival time, dose: 50.0 mg/kg/injection, schedule: Q01DX009 (ip), vehicle: saline) 94 % of control; under setting [14], 110 % of control; under setting [15], 90 % of control.

Turning to `CCC(=O)c1ccc(OC(C)=O)c(OC(C)=O)c1`, the T/C reads like this: under setting [14], 96 % of control; under setting [15], 96 % of control; (endpoint: mean survival time, dose: 400.0 mg/kg/injection, schedule: Q01DX009 (ip), vehicle: saline) 96 % of control.

With `CC(=O)N/C(=C\c1ccccc1)C(N)=O`, the T/C is 103 % of control under setting [5], 95 % of control under setting [9] and 100 % of control under setting [10].

Regarding `C/C=C/CC(C/C=C/C)C1CC[N-]CC1.C/C=C/CC(C/C=C/C)C1CC[N-]CC1.[Cl][Pt+2]([Cl])([Cl])[Cl]`, the T/C by setting is: (endpoint: mean survival time, dose: 12.5 mg/kg/injection, schedule: Q01DX009 (ip), vehicle: other) 93 % of control; (endpoint: mean survival time, dose: 100.0 mg/kg/injection, schedule: Q01DX009 (ip), vehicle: other) 88 % of control.

Consider `C[N+]1(C)CCOC(O)(c2ccc(-c3ccccc3)cc2)C1` (stereo not given), for which the T/C is, setting by setting: (endpoint: mean survival time, dose: 3.13 mg/kg/injection, schedule: Q04DX002 (ip), vehicle: saline) 98 % of control; (endpoint: mean survival time, dose: 6.25 mg/kg/injection, schedule: Q04DX002 (ip), vehicle: saline) 91 % of control.
